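Five concentrations, 48 hours, 96-well plates. Here, GI50 denotes the concentration required for 50% inhibition of growth.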 Active and inactive are the calls of the source. Cut-off read from the data, not from the text of the source: active = GI50 up to about 1.1 µM and inactive = higher.
How the values were obtained:
Assay in all cases: DTP human tumour cell line panel, 48 h
LXFL 529 = test system: LXFL 529
RXF 631 = test system: RXF 631
XF498 = test system: XF498
MDA-MB-231 = test system: MDA-MB-231
MDA-MB-435 = test system: MDA-MB-435
MDA-N = test system: MDA-N
786-0 = test system: 786-0
Hs-578T = test system: Hs-578T
T47D = test system: T47D

SMILES | GI50 (LXFL 529) | GI50 (RXF 631) | GI50 (XF498) | GI50 (MDA-MB-231) | GI50 (MDA-MB-435) | GI50 (MDA-N) | GI50 (786-0) | GI50 (Hs-578T) | GI50 (T47D)
Cc1cn(C2CC(O)C(CO)C2C)c(=O)[nH]c1=O (centres undefined) | > 100 µM (inactive) | > 100 µM (inactive) | > 100 µM (inactive) | – | – | – | – | – | –
O[C@@]12Cc3c([nH]c4ccccc34)[C@@H]3Oc4cccc5c4[C@@]31CCN(CC1CC1)[C@@H]2C5 | – | – | – | 25.7 µM (inactive) | 15.7 µM (inactive) | 19.6 µM (inactive) | – | – | –
CN1CCN(P2(=S)Oc3ccc4ccccc4c3-c3c(ccc4ccccc34)O2)CC1 | – | – | 28.8 µM (inactive) | – | – | – | – | – | –
c1ccc(CCn2cncn2)cc1 | > 100 µM (inactive) | > 100 µM (inactive) | – | – | – | – | – | – | –
CC(C)=CCC/C(C)=C/CCC1(C)C=Cc2c(c3ccccc3oc2=O)O1 (centres undefined) | – | – | 15.5 µM (inactive) | – | – | – | – | – | –
O=C1N/C(=N/N=C/c2c[nH]c3ccccc23)N/C1=C\c1cccs1 | – | – | – | 40.4 µM (inactive) | 43.3 µM (inactive) | > 100 µM (inactive) | > 100 µM (inactive) | > 100 µM (inactive) | > 100 µM (inactive)
CNS(=O)(=O)NN(C)S(=O)(=O)c1ccc(F)cc1 | > 100 µM (inactive) | – | > 100 µM (inactive) | – | – | – | > 100 µM (inactive) | – | –
CCSc1nc(N/N=C/c2cccs2)c2cnn(CO)c2n1 | – | – | – | 18.3 µM (inactive) | 6.25 µM (inactive) | – | 0.0614 µM (active) | 4.31 µM (inactive) | 3.8 µM (inactive)
COc1cc2c(cc1OC)-c1cc3ccccc3c[n+]1CC2 | – | – | – | > 100 µM (inactive) | > 100 µM (inactive) | > 100 µM (inactive) | – | 23.8 µM (inactive) | 42.6 µM (inactive)
CCCCCCCCCCCCCCCCCc1cc(Cl)nc(Cl)n1 | – | – | – | – | > 100 µM (inactive) | – | > 100 µM (inactive) | > 100 µM (inactive) | –
N#Cc1ccc(-c2nc(C#N)c(N)o2)cc1 | – | – | – | > 10 µM (inactive) | > 10 µM (inactive) | > 10 µM (inactive) | > 10 µM (inactive) | > 10 µM (inactive) | > 10 µM (inactive)
CCOC(=O)/C=C(\C)c1ccc(Cl)cc1 | > 100 µM (inactive) | > 100 µM (inactive) | > 100 µM (inactive) | – | – | – | – | – | –
O=C(Nc1cccc(O)c1)C(=O)C(C(=O)c1ccccc1F)C1OC(=O)c2ccccc21 (centres undefined) | 16.4 µM (inactive) | 21.6 µM (inactive) | – | – | – | – | – | – | –
CSc1cc(-c2cc3ccccc3o2)oc(=O)c1C#N | > 100 µM (inactive) | 64.7 µM (inactive) | 5.83 µM (inactive) | – | – | – | – | – | –
COC1=C2CC(C)CC(OC)C(O)C(C)/C=C(\C)C(OC(N)=O)C(OC)/C=C\C=C(/C)C(=O)NC(=C(/C=N/C(C)(C)C)C1=O)C2=O (centres undefined) | – | – | 0.767 µM (active) | – | – | – | – | – | –
CCOC(=O)/C=C/c1c(C)[nH]c(=O)[nH]c1=O | – | – | > 250 µM (inactive) | – | – | – | – | – | –
CN(CCCNc1ccc2ncn3c4ccccc4c(=O)c1c23)CCCN1C(=O)c2cccc3cc([N+](=O)[O-])cc(c23)C1=O | – | – | – | 0.0201 µM (active) | 0.0219 µM (active) | 0.0321 µM (active) | – | 0.0879 µM (active) | 1.18 µM (inactive)
C/C(=N\NS(=O)(=O)c1ccccc1)c1ccccc1 | – | – | > 100 µM (inactive) | – | – | – | – | – | –
O=C1Sc2ccccc2/C1=N/Nc1ccccc1[N+](=O)[O-] | – | – | – | – | > 100 µM (inactive) | 57 µM (inactive) | – | 36.1 µM (inactive) | 10.2 µM (inactive)
O=C1C(=O)c2ccccc2C=C1[N+](=O)[O-] | – | – | – | 18.1 µM (inactive) | 16.8 µM (inactive) | 19.7 µM (inactive) | 45.1 µM (inactive) | 57.1 µM (inactive) | 32.8 µM (inactive)
C=C1C[C@@H]2C[C@@H](C)CC(O)[C@]2(CCCN)C1O (some centres undefined) | > 100 µM (inactive) | > 100 µM (inactive) | > 100 µM (inactive) | – | – | – | > 100 µM (inactive) | – | –
O=C1CNc2cc(N3CCCCC3)ccc2N1 | – | – | – | – | 60.4 µM (inactive) | 75.2 µM (inactive) | – | 4.43 µM (inactive) | > 100 µM (inactive)
COc1cc(O)c2c(c1)C(=O)c1cc(C)cc(O)c1C2=O [PHYSCION] | > 100 µM (inactive) | > 100 µM (inactive) | – | – | – | – | – | – | –

Source: ChEMBL document CHEMBL1201862, “PubChem BioAssay data set” (2004)
